Target: T1, human angiogenin (hANG) (Homo sapiens, UniProt P03950)
T1 construct: gene ANG; [Met−1]-form
Test: fluorogenic RNase activity assay with and without NCI-65828 (Fig. 1E)
Assay type: biochemical

T1 sequence (P03950 25-147): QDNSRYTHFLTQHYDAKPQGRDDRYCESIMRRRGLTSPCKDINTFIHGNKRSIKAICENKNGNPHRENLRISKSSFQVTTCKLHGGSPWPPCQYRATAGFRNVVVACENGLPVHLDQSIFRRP

Nc1ccc(/N=N/c2ccc(-c3ccc(O)cc3)cc2)c2ccc(S(=O)(=O)O)cc12 [NCI-65828, 8-amino-5-(4′-hydroxybiphenyl-4-azo) napathlene-2-sulphate]
fluorogenic RNase activity assay with and without NCI-65828 (Fig. 1E): Enzyme kinetic data for Rnasel and hANG native protein and in the presence of NCI-65828.
